From ChEMBL document CHEMBL3045592, “Studies of O,O-dimethyl α-(2,4-dichlorophenoxyacetoxy)ethylphosphonate (HW02) as a new herbicide. 1. Synthesis and herbicidal activity of HW02 and analogues as novel inhibitors of pyruvate dehydrogenase complex” (J Agric Food Chem, 2011)
pIC50: −log10 of the molar value.

Tests used:
[1] = test system: Oryza sativa; assay: Inhibition of PDHc in Oryza sativa (rice) shoot mitochondria assessed as decrease in rate of NADH formation using sodium pyruvate as substrate at 0.1 microg/g preincubated for 25 min before substrate addition measured after 1 min by spectrophotometric assay
[2] = test system: Oryza sativa; assay: Inhibition of PDHc in Oryza sativa (rice) shoot mitochondria assessed as decrease in rate of NADH formation using sodium pyruvate as substrate at 10 microg/g preincubated for 25 min before substrate addition measured after 1 min by spectrophotometric assay
[3] = Inhibition of PDHc in Oryza sativa (rice) shoot mitochondria assessed as decrease in rate of NADH formation using sodium pyruvate as substrate preincubated for 25 min before substrate addition measured after 1 min by spectrophotometric assay
[4] = target: Pyruvate dehydrogenase complex (Vigna radiata var. radiata); assay: Inhibition of PDHc in Vigna radiata var. radiata VC2778A shoot mitochondria assessed as decrease in rate of NADH formation using sodium pyruvate as substrate preincubated for 25 min before substrate addition measured after 1 min by spectrophotometric assay; format: protein-complex assay
[5] = test system: Echinochloa crus-galli; assay: Post-emergence herbicidal activity against Echinochloa crus-galli (barnyard grass) assessed as growth inhibition at 37.5 ai g/ha after 20 days by green house test; format: functional
[6] = test system: Echinochloa crus-galli; assay: Post-emergence herbicidal activity against Echinochloa crus-galli (barnyard grass) assessed as growth inhibition at 18.75 ai g/ha after 20 days by green house test; format: functional
[7] = test system: Medicago sativa; assay: Post-emergence herbicidal activity against Medicago sativa (alfalfa) assessed as growth inhibition at 450 ai g/ha after 20 days by green house test; format: functional
[8] = test system: Medicago sativa; assay: Post-emergence herbicidal activity against Medicago sativa (alfalfa) assessed as growth inhibition at 225 ai g/ha after 20 days by green house test; format: functional
[9] = test system: Medicago sativa; assay: Post-emergence herbicidal activity against Medicago sativa (alfalfa) assessed as growth inhibition at 150 ai g/ha after 20 days by green house test; format: functional
[10] = test system: Portulaca oleracea; assay: Post-emergence herbicidal activity against Portulaca oleracea assessed as growth inhibition at 300 ai g/ha after 20 days by green house test; format: functional
[11] = Toxicity against Oryza sativa (rice) assessed as growth inhibition at 600 ai g/ha post-emergent application measured after 20 days by green house crop selectivity test; format: organism-based; conditions: in vivo, read-out: GI
[12] = test system: Cardamine hirsuta; assay: Post-emergence herbicidal activity against Cardamine hirsuta assessed as growth inhibition at 450 ai g/ha after 20 days by green house test; format: functional
[13] = test system: Cardamine hirsuta; assay: Post-emergence herbicidal activity against Cardamine hirsuta assessed as growth inhibition at 300 ai g/ha after 20 days by green house test; format: functional
[14] = test system: Portulaca oleracea; assay: Post-emergence herbicidal activity against Portulaca oleracea assessed as growth inhibition at 225 ai g/ha after 20 days by green house test; format: functional
[15] = Toxicity against Oryza sativa (rice) assessed as growth inhibition at 225 ai g/ha post-emergent application measured after 20 days by green house crop selectivity test; format: organism-based; conditions: in vivo, read-out: GI
[16] = Toxicity against Zea mays Gao you 1 (maize) assessed as growth inhibition at 600 ai g/ha post-emergent application measured after 20 days by green house crop selectivity test; format: organism-based; conditions: Gao you 1, zea mays, in vivo, read-out: GI
[17] = Toxicity against Triticum aestivum Yang Mai 1 (wheat) assessed as growth inhibition at 225 ai g/ha post-emergent application measured after 20 days by green house crop selectivity test; format: organism-based; conditions: Yang Mai 1, triticum aestivum, in vivo, read-out: GI
[18] = test system: Cardamine hirsuta; assay: Post-emergence herbicidal activity against Cardamine hirsuta assessed as growth inhibition at 225 ai g/ha after 20 days by green house test; format: functional
[19] = test system: Cardamine hirsuta; assay: Post-emergence herbicidal activity against Cardamine hirsuta assessed as growth inhibition at 18.75 ai g/ha after 20 days by green house test; format: functional
[20] = test system: Xanthium strumarium; assay: Post-emergence herbicidal activity against Xanthium strumarium (cocklebur) assessed as growth inhibition at 150 ai g/ha after 20 days by green house test; format: functional
[21] = test system: Amaranthus retroflexus; assay: Post-emergence herbicidal activity against Amaranthus retroflexus assessed as growth inhibition at 75 ai g/ha after 20 days by green house test; format: functional
[22] = test system: Eclipta prostrata; assay: Post-emergence herbicidal activity against Eclipta prostrata assessed as growth inhibition at 450 ai g/ha after 20 days by green house test; format: functional
[23] = test system: Eclipta prostrata; assay: Post-emergence herbicidal activity against Eclipta prostrata assessed as growth inhibition at 300 ai g/ha after 20 days by green house test; format: functional
[24] = test system: Eclipta prostrata; assay: Post-emergence herbicidal activity against Eclipta prostrata assessed as growth inhibition at 37.5 ai g/ha after 20 days by green house test; format: functional
[25] = test system: Eclipta prostrata; assay: Post-emergence herbicidal activity against Eclipta prostrata assessed as growth inhibition at 18.75 ai g/ha after 20 days by green house test; format: functional
[26] = test system: Daucus carota; assay: Post-emergence herbicidal activity against Daucus carota (carrot) assessed as growth inhibition at 225 ai g/ha after 20 days by green house test; format: functional
[27] = test system: Daucus carota; assay: Post-emergence herbicidal activity against Daucus carota (carrot) assessed as growth inhibition at 150 ai g/ha after 20 days by green house test; format: functional
[28] = test system: Brassica rapa subsp. oleifera; assay: Post-emergence herbicidal activity against Brassica rapa subsp. oleifera Si Yue Man assessed as growth inhibition at 600 ai g/ha after 20 days by green house test; format: functional
[29] = test system: Brassica rapa subsp. oleifera; assay: Post-emergence herbicidal activity against Brassica rapa subsp. oleifera Si Yue Man assessed as growth inhibition at 300 ai g/ha after 20 days by green house test; format: functional
[30] = test system: Brassica rapa subsp. oleifera; assay: Post-emergence herbicidal activity against Brassica rapa subsp. oleifera Si Yue Man assessed as growth inhibition at 150 ai g/ha after 20 days by green house test; format: functional
[31] = test system: Brassica rapa subsp. oleifera; assay: Post-emergence herbicidal activity against Brassica rapa subsp. oleifera Si Yue Man assessed as growth inhibition at 75 ai g/ha after 20 days by green house test; format: functional
[32] = test system: Brassica rapa subsp. oleifera; assay: Post-emergence herbicidal activity against Brassica rapa subsp. oleifera Si Yue Man assessed as growth inhibition at 37.5 ai g/ha after 20 days by green house test; format: functional
[33] = test system: Digitaria sanguinalis; assay: Post-emergence herbicidal activity against Digitaria sanguinalis (hairy crabgrass) assessed as growth inhibition at 37.5 ai g/ha after 20 days by green house test; format: functional

COP(=O)(OC)C(C)OC(=O)COc1ccc(Cl)cc1Cl (stereo not drawn) [CLACYFOS]
inhibition [1]: 3.4% | inhibition [2]: 16.9% | pIC50 [3]: 3.06 | pIC50 [4]: 4.89 | growth inhibition (GI) [5]: 0% | growth inhibition (GI) [6]: 0% | growth inhibition (GI) [7]: 100% | growth inhibition (GI) [8]: 95% | growth inhibition (GI) [9]: 90% | growth inhibition (GI) [10]: 95% | inhibition at 480 h [11]: 0% | growth inhibition (GI) [12]: 100% | growth inhibition (GI) [13]: 100% | growth inhibition (GI) [14]: 90% | inhibition at 480 h [15]: 0% | inhibition at 480 h [16]: 0% | inhibition at 480 h [17]: 0% | growth inhibition (GI) [18]: 95% | growth inhibition (GI) [19]: 75% | growth inhibition (GI) [20]: 90% | growth inhibition (GI) [21]: 90% | growth inhibition (GI) [22]: 100% | growth inhibition (GI) [23]: 100% | growth inhibition (GI) [24]: 72% | growth inhibition (GI) [25]: 56% | growth inhibition (GI) [26]: 97% | growth inhibition (GI) [27]: 95% | growth inhibition (GI) [28]: 100% | growth inhibition (GI) [29]: 100% | growth inhibition (GI) [30]: 97% | growth inhibition (GI) [31]: 92.5% | growth inhibition (GI) [32]: 90% | growth inhibition (GI) [33]: 0%
